Test results as given in patent US4031259A, “Process of preparing nutritive sweetening compositions” (General Foods Corporation, priority 1975, dated 1977).
Where a SMILES comes first, the peptide text is derived from it.

How the values were obtained:
[1] = as much as; cited from earlier work
[2] = Rate of solubility: time to complete dissolution in room temperature distilled water (10 ml, pH 5.7, constant stirring); Solubility Factor derived from it; type: physicochemical; details: APM alone (control); for Rate of Solubility (time until complete dissolution): in 10 ml room temperature distilled water, pH 5.7, magnetic stirrer, B3: incomplete dissolution after this time
Description: The following represents a broad ratio of systems tested in order to evaluate the effect protein hydrolysates have on the rate of solubility of APM.
All systems were prepared by dissolving the ingredients in water and freeze-drying. Evaluations were made in room temperature distilled water (10 ml) having a pH of 5.7 with constant stirring by a magnetic stirrer. The time was clocked from the instant the powder hit the water until complete dissolution.
Samples A1 - A4 consisted of 1 g. each in 10 ml; samples B1 - B4 (controls) consisted of the amount indicated, also in 10 ml., the total amount of APM in the controls being equivalent to the respective test samples (A1 - A4). Where applicable, the ratio expressed is of APM to soy isolate respectively.
A convenient way of expressing the change in the solubility rate of a given amount of sweetener after combining with protein hydrolysate and dried is called the "Solubility Factor."
This is expressed as follows: [formula] the higher the SF value, the more appreciable the improvement in solubility.

SMILES	Rate of Solubility (time until complete dissolution) [2]	also measured
COC(=O)[C@H](Cc1ccccc1)NC(=O)[C@@H](N)CC(=O)O [APM, L-aspartyl-L-phenylalanine methyl ester] (H-Asp-Phe-OMe)	–	sweetness relative to sucrose [1]: ≤ 200 times as sweet as sucrose
COC(=O)[C@H](Cc1ccccc1)NC(=O)[C@@H](N)CC(=O)O [Sample B3, L-aspartyl-L-phenylalanine methyl ester] (H-Asp-Phe-OMe)	> 50 min	–
COC(=O)[C@H](Cc1ccccc1)NC(=O)[C@@H](N)CC(=O)O [Sample B4, L-aspartyl-L-phenylalanine methyl ester] (H-Asp-Phe-OMe)	–	Rate of Solubility (incomplete dissolution after) ([2]; 200 mgs. in 10 ml room temperature distilled water, pH 5.7): > 1 h

More lines, main results first:

Rate of Solubility (time until complete dissolution) [2]	SMILES	also measured
7 min	COC(=O)[C@H](Cc1ccccc1)NC(=O)[C@@H](N)CC(=O)O [Sample B1, L-aspartyl-L-phenylalanine methyl ester] (H-Asp-Phe-OMe)	–
11 min	COC(=O)[C@H](Cc1ccccc1)NC(=O)[C@@H](N)CC(=O)O [Sample B2, L-aspartyl-L-phenylalanine methyl ester] (H-Asp-Phe-OMe)	–
